Measurements: BindingDB's records for doi:10.1016/j.bmcl.2005.08.114 (Wyeth Research, 2005)

Test: Reduction of viral RNA and protein in Huh7 cells containing HCV sub-genomic replicon

- EC50: 3.2 µM
Compound: CCC[C@]1(CC(=O)O)OCCc2c1sc1c(C)cc(F)c(C#N)c21 [((R)-5-cyano-6-fluoro-8-methyl-1-propyl-3,4-dihydro-1H-benzo[4,5]thieno[2,3-c]pyran-1-yl)-acetic acid]
